Data published in US6083915A, “Method for treating liver cancer” (Biomeasure, Inc., priority 1991, dated 2000).

Test system: M5123 hepatoma
Format: in vivo
Details: for % Test/Control / Tumor Weight (mg) Day 18: 100 μg/inj., s.c., b.i.d., q.d. 1-20; for % Test/Control: day 18; for Tumor Weight (mg) Day 18: mean ± s.e.m.
Description: The M5123 hepatoma cells, obtained from Dr. H. P. Morris at the National Cancer Institute, were induced in the Buffalo strain of rats by ingestion of N-(2-fluorenyl-phthalamic acid) and established in serial transplantation. Implantation of the M5123 hepatoma cells in an immunodeficient athymic mouse reproducibly results in progressively growing, lethal tumor.
In contrast to the subrenal capsule assay, in the subcutaneous assay, tumor xenografts are implanted subcutaneously, rather than under the subrenal capsule, and treatment can be initiated at any selected time after the implantation.
In this assay, tumors were implanted subcutaneously in the right flank of athymic female mice and test compounds, BIM-26159, BIM-26187, BIM-26189, BIM-26218, BIM-26223 and BIN-26228, and control were injected subcutaneously in the left flank. For the structures of BIM-26159, BIM-26187, BIM-26189, see "Summary of the Invention" above. The structures of BIM-26223 and BIM-26228 are as follows:
Response of an implanted tumor to the treatment was monitored as follows. The length and width of the tumor were first measured using sensitive Vernier calipers. Tumor weight was then calculated based on the measurements as follows: [length (mm)×width (mm)^2 ]/2 mg. In addition to tumor size or weight, this assay system permits the parameter of "lag time", i.e., the effect of early treatment on the growth potential of tumors to reach a certain size.
In one experiment, thirty two mice were implanted subcutaneously with M5123 hepatoma xenografts on day 0 and randomized into four groups of eight animals per group. The bombesin analog BIM-26159 was administered at 250, 50, 10 μg per injection, S.C., b.i.d.,q.d. 1-18.
In another experiment, we tested the activity of five bombesin analogs, i.e., BIM-26187, BIM-26189, BIM-26218, BIM-26223 and BIM-26228, over a period of 18 days. Forty mice were implanted s.c. with M5123 hepatoma xenografts on day 0, and the randomized into ten animals in the control group and six animals per test group. All compounds were administered at 100 μg per injection, s.c., b.i.d., q.d. 1-18.

Compound | % Test/Control | Tumor Weight (mg) Day 18 | effect on growth of the tumor cells (in words) (100 μg per injection, over 18 days)
CC(C)C[C@H](NC(=O)[C@H](CC(C)C)NC(=O)[C@H](Cc1c[nH]cn1)NC(=O)CNC(=O)[C@@H](NC(=O)[C@H](C)NC(=O)[C@H](Cc1c[nH]c2ccccc12)NC(=O)[C@H](CCC(N)=O)NC(=O)[C@H](N)Cc1ccccc1)C(C)C)C(N)=O [BIM-26187, D-Phe-Gln-Trp-Ala-Val-Gly-His-Leu-Leu-NH2] | 83% | 482.8 ± 175.0 mg | 
D-Phe-Gln-Trp-Ala-Val-Gly-CHxAla-Leu-NH2 [BIM-26228] | 115% | 667.2 ± 181.6 mg | slightly stimulated growth
